The test concerns DLD-1-KO cells. Briefly: Cleaved caspase-3 Western blot, DLD-1-KO. In kind it is cell-based, human. The following applies: DLD-1-KO cells treated 34 h or 48 h. How it is done:
FIG. 6C is a blot showing extracts of DLD-1, DLD-1-KO and RPE cells at 34 h. and 48 h. DLD-1 cells treated with P14B for 36 h and 48 h were lysed and the expression of the apoptosis marker cleaved caspase-3 was analyzed by Western blot. Cells treated with the apoptosis inducer palmitic acid (PA) were used as a positive control.
Proteins were resolved by SDS-PAGE, transferred onto PVDF membranes (Immobilon-P, Millipore) and Western blot was performed as previously described (Cabot et al, Oncogene 2021). […]
Since both inhibition and sustained activation of RAS signaling are related to a decrease in cell survival, we analyzed the viability of the CRC cell lines DLD-1 (expressing oncogenic KRAS) and DLD-1-KO (oncogenic KRAS allele deleted), and the non-transformed cell line hTERT-RPE. […] The effect of P14B in DLD-1 cells cultured in 3D conditions was also determined. […]
For orientation: A western blot detects proteins with antibodies after separation by electrophoresis.

For `COc1ccc(C(c2c(C)n[nH]c2O)c2c(C)n[nH]c2O)cc1Oc1ccc([N+](=O)[O-])cc1` [Example P14B], the “cleaved caspase-3 expression” value is on record as “undetectable”.
